Assays:
[1] = test system: Vesicular stomatitis virus; assay: Antiviral activity against Vesicular stomatitis virus infected in human HEL cells assessed as reduction of virus-induced cytopathogenicity; type: functional, organism-based
[2] = test system: Human alphaherpesvirus 2; assay: Antiviral activity against Herpes simplex virus-2 G infected in human HEL cells assessed as reduction of virus-induced cytopathogenicity; type: functional, organism-based; details: Human alphaherpesvirus 2, strain G
[3] = test system: Human alphaherpesvirus 3; assay: Antiviral activity against […] Varicella-zoster virus 07-1 infected in human HEL cells assessed as reduction of plaque formation; type: functional, organism-based; details: Human alphaherpesvirus 3, 07-1, HEL
[4] = test system: Human alphaherpesvirus 3; assay: Antiviral activity against TK-positive Varicella-zoster virus OKA infected in human HEL cells assessed as reduction of plaque formation; type: functional, cell-based; details: Human alphaherpesvirus 3, strain Oka vaccine
[5] = Cytotoxicity against human HEL cells; type: cell-based
[6] = test system: Plasmodium falciparum; assay: Antimalarial activity against chloroquine-resistant Plasmodium falciparum Dd2; type: functional, organism-based
[7] = test system: Cytomegalovirus; assay: Antiviral activity against Cytomegalovirus Davis infected in human HEL cells assessed as reduction of plaque formation; type: functional, organism-based; details: Human betaherpesvirus 5, Davis
[8] = test system: Cytomegalovirus; assay: Antiviral activity against Cytomegalovirus AD-169 infected in human HEL cells assessed as reduction of plaque formation; type: functional, organism-based; details: Human betaherpesvirus 5, AD-169, HEL
[9] = test system: Influenza B virus; assay: Antiviral activity against influenza B virus infected in dog MDCK cells assessed as reduction of virus-induced cytopathogenicity by MTS assay; type: functional, organism-based
[10] = test system: Influenza A virus; assay: Antiviral activity against influenza A virus […] subtype infected in dog MDCK cells assessed as reduction of virus-induced cytopathogenicity by MTS assay; type: functional, organism-based
[11] = test system: Influenza A virus; assay: Antiviral activity against influenza A virus H1N1 subtype infected in dog MDCK cells assessed as reduction of virus-induced cytopathogenicity by MTS assay; type: functional, organism-based
[12] = (§1) Cytotoxicity against MDCK cells assessed as cell viability after 4 days by MTS assay; type: cell-based, Canis lupus familiaris; details: dog, MDCK cells
[13] = Inhibition of beta-hematin formation at 1 mg/ml; type: functional
[14] = test system: Felid alphaherpesvirus 1; assay: Antiviral activity against feline herpesvirus infected in cat CRFK cells assessed as reduction of virus-induced cytopathogenicity by MTS assay; type: functional, organism-based; details: Felid alphaherpesvirus 1, CRFK
[15] = test system: Feline coronavirus; assay: Antiviral activity against Feline coronavirus infected in cat CRFK cells assessed as reduction of virus-induced cytopathogenicity by MTS assay; type: functional, organism-based; details: Alphacoronavirus 1, CRFK
[16] = Cytotoxicity against african green monkey Vero cells; type: cell-based; details: chlorocebus sabaeus
[17] = test system: Punta Toro virus; assay: Antiviral activity against […] infected in african green monkey Vero cells assessed as reduction of virus-induced cytopathogenicity; type: functional, organism-based
[18] = test system: Sindbis virus; assay: Antiviral activity against Sindbis virus infected in african green monkey Vero cells assessed as reduction of virus-induced cytopathogenicity; type: functional, organism-based
[19] = test system: Coxsackievirus; assay: Antiviral activity against Coxsackievirus B4 infected in african green monkey Vero cells assessed as reduction of virus-induced cytopathogenicity; type: functional, organism-based
[20] = test system: Mammalian orthoreovirus 1; assay: Antiviral activity against Reovirus-1 infected in african green monkey Vero cells assessed as reduction of virus-induced cytopathogenicity; type: functional, organism-based; details: Mammalian orthoreovirus 1, Vero
[21] = Cytotoxicity against human HeLa cells; type: cell-based
[22] = test system: Human respirovirus 3; assay: Antiviral activity against Parainfluenza-3 virus infected in african green monkey Vero cells assessed as reduction of virus-induced cytopathogenicity; type: functional, organism-based; details: Human respirovirus 3, Vero
[23] = test system: Respiratory syncytial virus; assay: Antiviral activity against Respiratory syncytial virus infected in human HeLa cells assessed as reduction of virus-induced cytopathogenicity; type: functional, organism-based
[24] = test system: Coxsackievirus; assay: Antiviral activity against Coxsackievirus B4 infected in human HeLa cells assessed as reduction of virus-induced cytopathogenicity; type: functional, organism-based
[25] = test system: Vesicular stomatitis virus; assay: Antiviral activity against Vesicular stomatitis virus infected in human HeLa cells assessed as reduction of virus-induced cytopathogenicity; type: functional, organism-based
[26] = test system: Human alphaherpesvirus 1; assay: Antiviral activity against TK-negative Herpes simplex virus 1 KOS infected in human HEL cells assessed as reduction of virus-induced cytopathogenicity; type: functional, organism-based; details: Human alphaherpesvirus 1, KOS
[27] = test system: Human alphaherpesvirus 1; assay: Antiviral activity against Herpes simplex virus-1 KOS infected in human HEL cells assessed as reduction of virus-induced cytopathogenicity; type: functional, organism-based; details: Human alphaherpesvirus 1, KOS
[28] = Cytotoxicity against cat CRFK cells; type: cell-based, Felis catus
[29] = Selectivity index, ratio of CC50 for MDCK cells to IC50 for chloroquine-resistant Plasmodium falciparum Dd2; type: functional
[30] = test system: MDCK; assay: as §1; type: cell-based, Canis lupus familiaris; details: dog, mdck, 96 h
[31] = test system: Plasmodium falciparum; assay: Antimalarial activity against chloroquine-sensitive Plasmodium falciparum D10 by two-fold dilution technique; type: functional, organism-based
[32] = test system: DNA; assay: Binding affinity to calf thymus DNA assessed as change in melting temperature at 30 uM by UV-visible spectrophotometry; type: nucleic-acid assay; details: Bos taurus

SMILES	EC50 [1]	EC50 [2]	EC50 [3]	EC50 [4]	MCC [5]	EC50 [7]	EC50 [8]	EC50 [9]	EC50 ([10]; read-out: EC50)	EC50 [11]	MCC at 96 h [12]	inhibition [13]	EC50 [15]	MCC [16]	EC50 [18]	EC50 [19]	EC50 [20]	MCC [21]	EC50 [22]	EC50 [24]	also measured
O=c1[nH]c(=O)n([C@H]2C[C@H](O)[C@@H](CO)O2)cc1/C=C/Br [BRIVUDINE]	> 250 µM	146 µM	145 µM	3.82 µM	> 250 µM	–	–	–	–	–	–	–	–	–	–	–	–	–	–	–	–
C[C@H]1[C@H](OC(=O)CCC(=O)O)O[C@@H]2O[C@@]3(C)CC[C@H]4[C@H](C)CC[C@@H]1[C@@]24OO3 [ARTESUNATE]	–	–	–	–	–	–	–	–	–	–	–	–	–	–	–	–	–	–	–	–	IC50 [6]: 0.0312 µM
Nc1ccn(C[C@@H](CO)OCP(=O)(O)O)c(=O)n1 [CIDOFOVIR]	> 250 µM	–	–	–	> 250 µM	1.84 µM	0.86 µM	–	–	–	–	–	–	–	–	–	–	–	–	–	–
CC(N)C12CC3CC(CC(C3)C1)C2 (stereo unspecified) [RIMANTADINE]	–	–	–	–	–	–	–	> 200 µM	0.01 µM	6.4 µM	> 200 µM	–	–	–	–	–	–	–	–	–	–
CCOC(=O)c1c(C)nc(OCCCNc2ccnc3cc(Cl)ccc23)nc1-c1ccccc1	> 100 µM	> 100 µM	> 4 µM	> 4 µM	> 4 µM	2.53 µM	2 µM	> 4 µM	> 4 µM	> 4 µM	20 µM	87%	> 100 µM	100 µM	> 20 µM	> 20 µM	> 20 µM	> 100 µM	> 20 µM	> 100 µM	EC50 [14]: > 100 µM; EC50 [17]: > 20 µM; EC50 [23]: > 100 µM; EC50 [25]: > 100 µM; EC50 [26]: > 100 µM; EC50 [27]: > 100 µM; CC50 ([28]; crfk): > 100 µM; Ratio CC50/IC50 [29]: 43.6; CC50 [30]: 21.1 µM; IC50 [6]: 0.483 µM
CCOC(=O)c1c(C)nc(NCCCCNc2ccnc3cc(Cl)ccc23)nc1-c1ccc(F)cc1	> 100 µM	> 100 µM	> 4 µM	> 4 µM	≥ 20 µM	> 4 µM	> 4 µM	> 4 µM	> 4 µM	> 4 µM	20 µM	59%	> 100 µM	20 µM	> 4 µM	> 4 µM	> 4 µM	> 100 µM	> 4 µM	> 100 µM	EC50 [14]: > 100 µM; EC50 [17]: > 4 µM; EC50 [23]: > 100 µM; EC50 [25]: > 100 µM; EC50 [26]: > 100 µM; EC50 [27]: > 100 µM; CC50 ([28]; crfk): > 100 µM; CC50 [30]: 11.4 µM; IC50 [31]: 2.76 µM
CS(=O)(=O)c1ccc(-c2cnc(N)c(-c3ccc(C(F)(F)F)nc3)c2)cc1 [MMV-048]	–	–	–	–	–	–	–	–	–	–	–	–	–	–	–	–	–	–	–	–	IC50 [6]: 0.0178 µM
Nc1nc2c(ncn2COCCO)c(=O)[nH]1 [ACYCLOVIR]	> 250 µM	–	144 µM	–	> 250 µM	–	–	–	–	–	–	–	–	–	–	–	–	–	–	–	–
Nc1ncnc2c1ncn2C[C@H](O)CO [(S)-DHPA]	–	–	–	–	–	–	–	–	–	–	–	–	–	> 250 µM	> 250 µM	> 250 µM	> 250 µM	> 250 µM	146 µM	> 250 µM	EC50 [17]: > 250 µM; EC50 [23]: > 250 µM; EC50 [25]: > 250 µM
CCOC(=O)c1c(C)nc(NCCCCNc2ccnc3cc(Cl)ccc23)nc1-c1ccccc1[N+](=O)[O-]	> 4 µM	> 4 µM	> 4 µM	> 4 µM	20 µM	> 4 µM	> 4 µM	> 0.16 µM	> 0.16 µM	> 0.16 µM	0.8 µM	49%	9 µM	4 µM	> 0.8 µM	> 0.8 µM	> 0.8 µM	100 µM	> 0.8 µM	> 20 µM	EC50 [14]: > 100 µM; EC50 [17]: > 0.8 µM; EC50 [23]: > 20 µM; EC50 [25]: > 20 µM; EC50 [26]: > 4 µM; EC50 [27]: > 4 µM; CC50 ([28]; crfk): > 100 µM; CC50 [30]: 0.8 µM; IC50 [31]: 1.46 µM
Nc1nc2c(ncn2COC(CO)CO)c(=O)[nH]1 [GANCICLOVIR]	> 100 µM	–	–	–	> 100 µM	5.98 µM	7.87 µM	–	–	–	–	–	> 100 µM	–	–	–	–	–	–	–	EC50 [26]: 4 µM; CC50 ([28]; CRFK cells): > 100 µM
NC(=O)c1ncn([C@@H]2O[C@H](CO)[C@@H](O)[C@H]2O)n1 [RIBAVIRIN]	–	–	–	–	–	–	–	2.8 µM	1.1 µM	2.5 µM	> 100 µM	–	–	> 250 µM	> 250 µM	> 250 µM	> 250 µM	> 250 µM	146 µM	112 µM	–
COC(=O)c1c(C)nc(NCCCNc2ccnc3cc(Cl)ccc23)nc1-c1ccccc1	> 20 µM	> 20 µM	> 4 µM	> 4 µM	≥ 20 µM	15.3 µM	10.9 µM	> 0.16 µM	> 0.16 µM	> 0.16 µM	0.8 µM	46%	1.1 µM	20 µM	> 4 µM	> 4 µM	> 4 µM	100 µM	> 4 µM	> 20 µM	EC50 [14]: > 20 µM; EC50 [17]: > 4 µM; EC50 [23]: > 20 µM; EC50 [25]: > 20 µM; EC50 [26]: > 20 µM; EC50 [27]: > 20 µM; CC50 ([28]; crfk): 25.1 µM; Ratio CC50/IC50 [29]: 3.13; CC50 [30]: 1.7 µM; IC50 [6]: 0.542 µM; IC50 [31]: 0.659 µM
CCN(CC)CCCC(C)Nc1ccnc2cc(Cl)ccc12 (stereo unspecified)	–	–	–	–	–	–	–	–	–	–	–	98%	–	–	–	–	–	–	–	–	ΔTm [32]: 9 °C
NC12CC3CC(CC(C3)C1)C2 [AMANTADINE]	–	–	–	–	–	–	–	> 200 µM	–	17 µM	> 200 µM	–	–	–	–	–	–	–	–	–	EC50 [10]: 0.3 µM
CCOC(=O)c1c(C)nc(NCCCCNc2ccnc3cc(Cl)ccc23)nc1-c1ccc(Cl)cc1	> 20 µM	> 20 µM	> 4 µM	> 4 µM	20 µM	> 4 µM	> 4 µM	> 0.8 µM	> 0.8 µM	> 0.8 µM	≥ 0.8 µM	56%	> 100 µM	4 µM	> 0.8 µM	> 0.8 µM	> 0.8 µM	> 100 µM	> 0.8 µM	> 100 µM	EC50 [14]: > 100 µM; EC50 [17]: > 0.8 µM; EC50 [23]: > 100 µM; EC50 [25]: > 100 µM; EC50 [26]: > 20 µM; EC50 [27]: > 20 µM; CC50 ([28]; crfk): > 100 µM; CC50 [30]: 2.2 µM; IC50 [31]: 1.93 µM
CCOC(=O)c1cnc(NCCCCNc2ccnc3cc(Cl)ccc23)nc1C	> 100 µM	> 100 µM	> 20 µM	> 20 µM	≥ 100 µM	> 20 µM	> 20 µM	> 4 µM	> 4 µM	> 4 µM	≥ 4 µM	58%	> 100 µM	100 µM	> 20 µM	> 20 µM	> 20 µM	100 µM	> 20 µM	> 20 µM	EC50 [14]: > 100 µM; EC50 [17]: > 20 µM; EC50 [23]: > 20 µM; EC50 [25]: > 20 µM; EC50 [26]: > 100 µM; EC50 [27]: > 100 µM; CC50 ([28]; CRFK cells): > 100 µM; Ratio CC50/IC50 [29]: 30.65; CC50 at 96 h [12]: 10.3 µM; IC50 [6]: 0.336 µM; IC50 [31]: 0.211 µM

Source: ChEMBL document CHEMBL2417501, “Synthesis of 4-aminoquinoline-pyrimidine hybrids as potent antimalarials and their mode of action studies” (Eur J Med Chem, 2013)
